Data: article PMC12313019, “Fibrotic lung ECM upregulates SDC4/integrin-αvβ1 interaction and the interfering peptide SDC4_87-131 and its derivative peptides alleviate pulmonary fibrosis” (Regenerative Biomaterials, 2025)

Test system: integrin-β1
Experiment: BLM-induced PF in mice: flow cytometry of integrin-β1 activation in lung tissue
Type: in vivo, mouse
Procedure: After the mice were anesthetized (1% sodium pentobarbital 50 mg/kg was injected intraperitoneally), 150 μL of bleomycin (BLM, 5 mg/mL, BIO-000001) was inhaled into the lungs of the mice by tracheal inhalation instillation. One day later, the mice were randomly divided into model and drug treatment groups, and the mice in the control group were only subjected to saline inhalation.
The single cell suspension of mouse lung tissue was obtained by grinding. After the remaining red blood cells were lysed with ACK Lysis Buffer (TBD, NH4CL2009), 1×10^6 cells/100 μL of cells were added with Fixable Viability Stain 780 (BD, #565388). After incubation at room temperature in the dark for 10-15 min, the suspension was washed twice with PBS containing 1%-2% FBS. The FCR antibody TruStain FcX™ PLUS (BD, #156603) was added to the cell suspension at a ratio of 0.25 μL:100 μL and blocked on ice for 10 min. Then, the antibody was incubated at an appropriate concentration and time according to the manufacturer's instructions. Antibodies include CD45 (Biolegend, #157619), CD140a (Thermo Fisher, #25-1401-82), SDC-4 (Sino Biological, #50726-R112-P), SP-C (Bioss, #bs-10067R-FITC) and Integrin-β1 (9Eg7, BD, 553715), and AF647 anti-Rat (CST, #4418S) was used as the secondary antibody. After incubation, cells were washed and resuspended, and detected using LSRFortessaX-20 (BD).

Ac-NHIPERAGSGSQVPTEPKKLEENEVIPKRISPVEESEDVSNKVSM-NH2 [SDC4_87-131]
integrin-β1 activation in nonimmune cells (CD45^-): abolished
integrin-β1 activation effect vs C8 and Anti-SDC4(93-121) (CD45^- cells): equivalent to the effects of C8 and Anti-SDC4(93-121)
